Experimental data as given in patent US10788502B2, “Erythrocyte sedimentation inhibitor” (FUJIMORI KOGYO CO., LTD., priority 2014, dated 2020).

What was measured:
[1] = system: erythrocytes in blood anticoagulated with sodium citrate; test: Blood sedimentation of citrated blood left to stand in a glass tube or blood container; type: cell-based; conditions: 30 minutes
Method: (§1) A solution of DIDS (Tokyo Chemical Industry Co., Ltd.) in physiological saline was added to blood anticoagulated with sodium citrate to a final concentration of 0.15 mg/ml or 1.5 mg/ml, respectively. The resulting mixture was mixed, and placed in a glass tube having a diameter of 6 mm (FIG. 1) or a blood container for measurement of thrombus formation (FIG. 2), followed by being left to stand.
as §1, with “DNDS” for “DIDS”, “0.02 mg/ml, 0.1 mg/ml,” for “0.15 mg/ml”, “0.2” for “1.5”, “3),” for “1) or a blood container for measurement of thrombus formation (FIG. 2),”
A solution of DNDS (Tokyo Chemical Industry Co., Ltd.) in physiological saline was added to blood anticoagulated with sodium citrate to a final concentration of 0.5 mg/ml or 1.0 mg/ml, respectively. The resulting mixture was mixed, and placed in a glass tube having a diameter of 6 mm. The glass tube was then inclined at an angle of 30°, and left to stand (FIG. 4).

[2] = system: citrate blood (thrombus formation; blood coagulation capacity and platelet function); test: Microchip capillary perfusion: pressure changes caused by formation of thrombi composed of fibrin and platelets; type: cell-based; conditions: for blood sedimentation: blood sample of the perfusion test; for thrombus formation (pressure pattern during perfusion): perfusion 10 μl/min for 30 minutes, collagen and tissue thromboplastin coated capillary
Method: The apparatus described in FIG. 12 of Patent Document 1 was used.
A capillary having a width of 300 μm, depth of 80 μm, and length of 1.5 cm formed on a microchip was coated with type I collagen (manufactured by Nitta Gelatin Inc.) and tissue thromboplastin (manufactured by Sysmex Corporation). The capillary was perfused with citrate blood supplemented with CTI (corn trypsin inhibitor) (final concentration, 50 μg/ml), calcium chloride (final concentration, 12 mM), and DIDS (final concentration, 0 or 1.5 mg/ml) or DNDS (final concentration, 0.3 mg/ml) fed from a blood container at a flow rate of 10 μl/min for 30 minutes, while changes in the pressure caused by formation of thrombi composed of fibrin and platelets were continuously measured.
FIG. 5 is a graph showing the pressure patterns during the perfusion with blood samples. The pressure reflects formation of thrombi composed of fibrin and activated platelets, and comprehensively reflects the blood coagulation capacity and the platelet function. […] B represents the pressure changes in the case of the blood sample supplemented with DIDS (1.5 mg/ml), and C represents the pressure changes in the case of the perfusion with the blood supplemented with DNDS (0.3 mg/ml).

Solubility in water = type: physicochemical

Structure (SMILES) | blood sedimentation ([1]; 0.15 mg/ml final concentration, 6 mm glass tube or blood container for measurement of thrombus formation) | blood sedimentation ([1]; 1.5 mg/ml final concentration, glass tube and container having an inclined bottom) | blood sedimentation ([2]; 1.5 mg/ml) | thrombus formation (pressure pattern during perfusion) ([2]; 1.5 mg/ml) | blood sedimentation relative to the control ([1]; 0.02 mg/ml final concentration, 6 mm glass tube) | blood sedimentation relative to the control ([1]; 0.1 mg/ml final concentration, 6 mm glass tube) | blood sedimentation ([1]; 0.2 mg/ml final concentration, 6 mm glass tube) | blood sedimentation relative to the control ([1]; 0.5 mg/ml final concentration, 6 mm glass tube inclined at an angle of 30°) | blood sedimentation relative to the control ([1]; 1.0 mg/ml final concentration, 6 mm glass tube inclined at an angle of 30°) | blood sedimentation ([2]; 0.3 mg/ml) | thrombus formation (pressure pattern during perfusion) ([2]; 0.3 mg/ml) | solubility in water (Solubility in water)
O=S(=O)(O)c1cc(N=C=S)ccc1C=Cc1ccc(N=C=S)cc1S(=O)(=O)O [DIDS, 4,4′-Diisothiocyanatostilbene-2,2′-disulfonic acid] | rather suppressed | completely suppressed | strongly suppresses blood sedimentation | does not affect thrombus formation |  |  |  |  |  |  |  | 
O=[N+]([O-])c1ccc(C=Cc2ccc([N+](=O)[O-])cc2S(=O)(=O)[O-])c(S(=O)(=O)[O-])c1.[Na+].[Na+] [DNDS, disodium 4,4′-dinitrostilbene-2,2′-disulfonate] |  |  |  |  | suppressed | suppressed | almost completely suppressed | suppressed | suppressed | strongly suppresses blood sedimentation | does not affect thrombus formation | soluble in water
